From ChEMBL document CHEMBL1201862, “PubChem BioAssay data set” (2004)
Calls of active or inactive are those of the source.

Experiments:
[1] = Luminescent dose response cell-based high throughput screening assay for inhibitors of the Janus kinase 2 mutant JAK2V617F. [Related pubchem assays: 1446 (Primary screen.), 1521 (Confirmation assay.), 1486 (Counter screen.)]; assay type: functional
[2] = cytotoxicity in HPDE-C7 cells, cell-based, fluorescence, HTS (AID 430); assay type: functional; settings: Homo sapiens
[3] = Luminescence Cell-Based Dose Response HTS to Identify Activators of Luciferase Translation or Activity in H4 […] Cells. [Related pubchem assays: 1829 (Project Summary), 1814 (Primary HTS)]; assay type: functional
[4] = target: T1, Mannose-6-phosphate isomerase (Homo sapiens, UniProt P34949); assay: human PMI inhibitors, high substrate, primary screen, biochemical, fluorescence intensity, high mannose 6-phosphate (AID 1220)
T1 sequence (P34949 whole entry): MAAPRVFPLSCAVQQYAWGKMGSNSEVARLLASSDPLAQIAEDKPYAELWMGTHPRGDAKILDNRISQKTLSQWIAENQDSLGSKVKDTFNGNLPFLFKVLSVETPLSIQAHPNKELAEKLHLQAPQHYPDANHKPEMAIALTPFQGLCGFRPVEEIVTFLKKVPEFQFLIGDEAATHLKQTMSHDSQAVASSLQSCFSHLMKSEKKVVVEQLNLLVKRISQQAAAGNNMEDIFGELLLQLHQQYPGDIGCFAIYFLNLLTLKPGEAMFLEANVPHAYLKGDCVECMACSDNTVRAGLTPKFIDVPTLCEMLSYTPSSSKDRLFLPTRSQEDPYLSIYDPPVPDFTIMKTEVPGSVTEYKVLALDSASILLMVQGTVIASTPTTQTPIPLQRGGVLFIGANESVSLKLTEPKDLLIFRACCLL

[5] = inhibitors of intracellular T. cruzi replication, confirmation, NIH3T3 host cells, beta-gal luminescence (AID 2044); assay type: functional, cell-based;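 further: intracellular parasites grown in NIH/3T3 mouse fibroblasts as host cells; luminescent beta-galactosidase reporter signal from transgenic T. cruzi replicating inside host cells; inhibitors lower the luminescence signal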
[6] = growth suppression of beta-catenin-knockout colon cells, dose response, cell-based, HCT116, human colon tumor (AID 1045); assay type: functional;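 further: HCT116 colon tumor cells with beta catenin knocked out; cells exposed to compound for 60 hours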
[7] = target: T2, Tyrosine-protein phosphatase non-receptor type 22 (Homo sapiens, UniProt Q9Y2R2); assay: PubChem AID 2140
T2 sequence (Q9Y2R2 whole entry): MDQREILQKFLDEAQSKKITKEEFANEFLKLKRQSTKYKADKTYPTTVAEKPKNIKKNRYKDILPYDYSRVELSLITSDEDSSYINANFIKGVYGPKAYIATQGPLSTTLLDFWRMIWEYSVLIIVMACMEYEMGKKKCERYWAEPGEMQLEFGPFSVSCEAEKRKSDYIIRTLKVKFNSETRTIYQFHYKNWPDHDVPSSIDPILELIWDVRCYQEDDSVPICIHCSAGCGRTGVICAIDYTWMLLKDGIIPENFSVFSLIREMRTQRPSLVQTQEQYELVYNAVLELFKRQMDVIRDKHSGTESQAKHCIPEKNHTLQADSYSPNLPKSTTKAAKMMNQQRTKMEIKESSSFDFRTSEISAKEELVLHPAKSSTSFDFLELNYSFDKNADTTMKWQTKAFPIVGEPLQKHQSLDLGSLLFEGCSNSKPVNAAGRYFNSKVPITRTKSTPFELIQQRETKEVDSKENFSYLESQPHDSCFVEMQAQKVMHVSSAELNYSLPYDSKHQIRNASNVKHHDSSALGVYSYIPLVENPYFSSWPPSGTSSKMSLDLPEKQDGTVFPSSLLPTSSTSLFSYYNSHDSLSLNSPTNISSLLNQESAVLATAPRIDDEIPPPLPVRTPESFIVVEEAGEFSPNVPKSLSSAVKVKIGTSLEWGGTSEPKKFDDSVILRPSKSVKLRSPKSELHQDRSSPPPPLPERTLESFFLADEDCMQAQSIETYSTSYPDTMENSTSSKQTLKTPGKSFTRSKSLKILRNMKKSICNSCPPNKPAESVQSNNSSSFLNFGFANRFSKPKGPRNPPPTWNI

[8] = target: T2, Tyrosine-protein phosphatase non-receptor type 22; assay: SAR LYP1 Fluorescent Assay using OMFP substrate for In Vitro dose response studies - Set 2. [Related pubchem assays (depositor defined):AID1779, AID1784, AID2140, AID449726, AID488869]; assay type: functional

SMILES	IC50 [1]	EC50 [2]	EC50 [3]	IC50 [4]	EC50 [5]	EC50 [6]	IC50 [7]	IC50 [8]
COc1ccc(Nc2ccc3c(c2)=NC2(CCCCC2)[N+]=3[O-])cc1	0.824 µM (active)	6.89 µM (active)	> 120 µM (not active)	> 50 µM (not active)	3.4 µM (active)	1.89 µM (active)		
COc1ccc(/C=C2\SC(=S)N(CCC(=O)Nc3ccc(C(=O)O)cc3)C2=O)cc1OC							7.46 µM (active)	1.08 µM (active)
